According to patent publication US20240251785A1, “SMALL MOLECULE ANTAGONISTS AND AGONISTS OF ARTHROPOD KININ RECEPTORS FOR PEST CONTROL” (The Texas A&M University System, priority 2021, published 2024):
Read-outs that look alike come from different tables or passages of the source.

Key:
[1] = tested on: R. microplus kinin receptor; experiment: High-throughput dual-addition calcium fluorescence screen on BMLK3 cells; assay type: cell-based, Rhipicephalus microplus; conditions: compound 2 μmol L^−1, 5 min, then FFFSWGa 500 nmol L^−1
[2] = biological target: recombinant tick kinin receptor (BMLK3) (Rhipicephalus microplus, UniProt Q9NHA4); experiment: Dose-response dual-addition calcium fluorescence assay on BMLK3 cells; assay type: cell-based; conditions: for activity type in dose-response assay, in words: Rhimi-K-1 1 μmol L^−1; for EC50: read-out: BMLK3 EC50
[3] = tested on: vector-only (V/O) CHO-K1 cells; experiment: Dose-response dual-addition calcium fluorescence assay on vector-only cells; assay type: cell-based
[4] = tested on: Human dermal fibroblasts (HDF) cells; experiment: Cytotoxicity assay (resazurin); assay type: cell-based; conditions: Human dermal fibroblasts cells; tested at 20 μcool L^−1
[5] = first addition, 20 concentrations 28 nM-25 μM
[6] = second addition Rhimi-K-1 1 μmol L^−1, read-out: BMLK3 IC50
[7] = summary of 36 validated antagonist hits, BMLK3 cells
[8] = summary of 36 validated antagonist hits, BMLK3 cells, read-out: BMLK3 IC50
[9] = V/O cells, second addition Rhimi-K-1 1 μmol L^−1, read-out: V/O antagonist IC50
[10] = summary of 36 validated antagonist hits, vector-only cell (V/O)
[11] = virtual hit molecules, dual-addition assay, recombinant tick kinin receptor (BMLK3) cells
[12] = virtual hit molecules, dual-addition assay, recombinant tick kinin receptor (BMLK3) cells, read-out: BMLK3 antagonist IC50
[13] = virtual hit molecules, dual-addition assay, vector-only cell (V/O)
[14] = virtual hit molecules, dual-addition assay, vector-only cell (V/O), read-out: V/O antagonist IC50

Sequence of recombinant tick kinin receptor (BMLK3) (Q9NHA4 entry or part of it): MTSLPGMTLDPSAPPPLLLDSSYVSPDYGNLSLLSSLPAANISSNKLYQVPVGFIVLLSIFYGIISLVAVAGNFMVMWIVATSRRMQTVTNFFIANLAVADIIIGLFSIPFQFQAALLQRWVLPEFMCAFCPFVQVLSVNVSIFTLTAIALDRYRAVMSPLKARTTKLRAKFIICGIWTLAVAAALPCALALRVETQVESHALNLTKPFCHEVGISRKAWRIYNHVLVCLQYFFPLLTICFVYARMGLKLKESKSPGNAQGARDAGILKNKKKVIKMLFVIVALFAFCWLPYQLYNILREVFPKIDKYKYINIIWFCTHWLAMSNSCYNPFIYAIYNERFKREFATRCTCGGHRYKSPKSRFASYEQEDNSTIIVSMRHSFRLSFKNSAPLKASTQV

SMILES	antagonist Io (%) [1]	Inhibitory Efficacy at 12 μM ([2]; BMLK3 cells)	activity type in dose-response assay, in words ([2]; BMLK3 cells)	EC50 [2, 5]	IC50 [2, 6]	EC50 [2, 7]	IC50 [2, 8]	EC50 ([3]; V/O cells, first addition)	IC50 [3, 9]	EC50 [3, 10]	IC50 [3, 10]	HDF average % growth inhibition [4]	EC50 ([2]; Table 5 analogs, first addition)	IC50 ([2]; Table 5 analogs, second addition Rhimi-K-1 1 μmol L^−1, read-out: BMLK3 antagonist IC50)	EC50 ([3]; Table 5 analogs, V/O cells)	IC50 ([3]; Table 5 analogs, V/O cells, read-out: V/O antagonist IC50)	EC50 [2, 11]	IC50 [2, 12]	EC50 [3, 13]	IC50 [3, 14]
CCCC[n+]1c(/C=C2/C=CN(CC)c3ccc(C)cc32)ccc2ccccc21 [SACC-0048555]	54%	107.39%	full agonist	8.88 µM	1.51 µM	8.88 µM	1.51 µM	12.8 µM	3.59 µM	12.8 µM	3.59 µM	−9.767%								
Cc1ccc(S(=O)(=O)NN2C(=O)C(=Cc3ccc(F)cc3)SC2=S)cc1 [SACC-0412063]		0.61%	very weak partial antagonists			24.2 µM	0.627 µM			1.21 µM	> 25 µM	2.277%	24.2 µM	0.627 µM	1.21 µM	> 25 µM				
CCN1C=C/C(=C\C=C\c2cc[n+](CC)c3ccccc23)c2ccccc21 [SACC-0054132]		37.34%				< 0.0285 µM	3.69 µM			2.56 µM	0.207 µM	9.037%					< 0.0285 µM	3.69 µM	2.56 µM	0.207 µM
O=C(O)COc1ccc(Br)cc1/C=N/Nc1cccc2cccnc12 [SACC-0126875]		59.47%		5.73 µM	8.51 µM	5.73 µM	8.51 µM	4.61 µM	> 25 µM	4.61 µM	> 25 µM	7.477%								
CSc1nc2ccc(NS(=O)(=O)c3ccc(Cl)s3)cc2s1 [SACC-0099442]		71.31%	full agonist			5.4 µM	7.17 µM			10.8 µM	1.12 µM	−1.16%					5.4 µM	7.17 µM	10.8 µM	1.12 µM
Cc1csc2ncnc(NCCc3ccc(Cl)cc3)c12 [SACC-0039590]		69.87%								1.63 µM	5.58 µM	−13.23%							1.63 µM	5.58 µM
C[C@@](O)(C#Cc1ccccc1)c1ccc(N2CCCCC2)c(F)c1 [SACC-0006795]	55%	33.05%		> 25 µM	17.3 µM	> 25 µM	17.3 µM	< 0.0285 µM	> 25 µM	< 0.0285 µM	> 25 µM	−1.773%								
Cc1ccc(-c2csc3ncnc(NCc4ccco4)c23)cc1 [SACC-0033457]	63%	55.73%		0.122 µM	14.8 µM	0.122 µM		11.5 µM	0.679 µM			8.023%								
CCCCCCCCn1c2c(c(=N)c3c1CCC3)CCCC2 [SACC-0050177]		35.48%		7.08 µM	> 25 µM	7.08 µM	> 25 µM	> 25 µM	12.3 µM	> 25 µM	12.3 µM	38.55%								
